In US20120225076A1, “FRA-1 TARGET GENES AS DRUG TARGETS FOR TREATING CANCER” (priority 2009, published 2012):
Structures can show the parent of a compound that is named as a salt. Where two headings read alike, the source gives them in different places. Numbered stars: 1 amine (or outer) side, 2 acyl side, 3 side chain; on linkers, the order of the positions; unused ones are H or OH. Bridge positions count the residues as written; N and C are the ends. Square brackets hold non-standard residues; d marks the D form. Peptide text beside a SMILES is read from it. Adda = CO[C@@H](Cc1ccccc1)[C@@H](C)/C=C(C)/C=C/[C@H](N[*:1])[C@H](C)C(=O)[*:2]; dAsp(3S-Me) = C[C@H](C(=O)[*:3])[C@@H](N[*:1])C(=O)[*:2]; d(γGlu) = O=C(O)[C@@H](CCC(=O)[*:2])N[*:1]; NMeDha = C=C(NC)C(=O)O

Assays:
[1] = biological target: Aurora kinase B (Homo sapiens, UniProt Q96GD4); details: description of known inhibitor; cited from earlier work
[2] = tested on: breast cancer cells expressing high levels of Fra-1
[3] = tested on: PP2A; details: cited from earlier work
[4] = tested on: PP1; details: cited from earlier work
[5] = biological target: E2F1-DNA complex (Homo sapiens, UniProt Q01094); details: description of known inhibitor; cited from earlier work
[6] = biological target: PP4 (Homo sapiens, UniProt P60510); details: description of known inhibitor; cited from earlier work
[7] = biological target: Adenosine A2b receptor (Homo sapiens, UniProt P29275); details: description of known inhibitor; cited from earlier work
[8] = tested on: PRLs; details: cited from earlier work

Chain of E2F1-DNA complex (Q01094 whole entry, one chain of several): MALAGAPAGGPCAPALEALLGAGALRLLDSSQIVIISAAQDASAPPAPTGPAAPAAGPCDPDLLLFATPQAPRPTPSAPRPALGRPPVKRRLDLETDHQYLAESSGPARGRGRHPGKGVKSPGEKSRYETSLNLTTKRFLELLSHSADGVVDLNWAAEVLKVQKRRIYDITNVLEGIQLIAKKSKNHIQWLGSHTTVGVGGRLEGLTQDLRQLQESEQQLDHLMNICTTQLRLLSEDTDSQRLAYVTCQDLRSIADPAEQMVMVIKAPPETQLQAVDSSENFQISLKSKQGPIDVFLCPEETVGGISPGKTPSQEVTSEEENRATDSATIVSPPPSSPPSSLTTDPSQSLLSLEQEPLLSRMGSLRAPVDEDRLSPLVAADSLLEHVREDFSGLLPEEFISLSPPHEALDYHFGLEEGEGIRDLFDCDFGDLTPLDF
Chain of PP4 (P60510 whole entry): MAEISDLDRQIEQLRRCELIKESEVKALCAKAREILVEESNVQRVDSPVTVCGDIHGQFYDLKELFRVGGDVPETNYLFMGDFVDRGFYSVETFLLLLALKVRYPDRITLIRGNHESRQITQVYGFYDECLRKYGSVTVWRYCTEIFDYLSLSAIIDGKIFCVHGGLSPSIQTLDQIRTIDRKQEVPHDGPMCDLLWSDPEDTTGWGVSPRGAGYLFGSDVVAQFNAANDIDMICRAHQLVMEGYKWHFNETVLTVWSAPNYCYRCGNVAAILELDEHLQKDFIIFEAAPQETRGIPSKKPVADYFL
Chain of Adenosine A2b receptor (P29275 whole entry): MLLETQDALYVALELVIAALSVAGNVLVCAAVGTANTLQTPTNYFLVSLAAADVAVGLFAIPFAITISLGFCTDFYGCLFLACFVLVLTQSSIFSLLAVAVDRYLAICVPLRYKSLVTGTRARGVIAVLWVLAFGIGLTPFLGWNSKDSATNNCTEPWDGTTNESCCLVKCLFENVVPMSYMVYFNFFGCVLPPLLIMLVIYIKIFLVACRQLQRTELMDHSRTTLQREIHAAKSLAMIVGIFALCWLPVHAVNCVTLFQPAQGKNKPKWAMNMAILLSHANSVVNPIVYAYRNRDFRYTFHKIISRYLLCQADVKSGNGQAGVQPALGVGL
Chain of Aurora kinase B (Q96GD4 whole entry): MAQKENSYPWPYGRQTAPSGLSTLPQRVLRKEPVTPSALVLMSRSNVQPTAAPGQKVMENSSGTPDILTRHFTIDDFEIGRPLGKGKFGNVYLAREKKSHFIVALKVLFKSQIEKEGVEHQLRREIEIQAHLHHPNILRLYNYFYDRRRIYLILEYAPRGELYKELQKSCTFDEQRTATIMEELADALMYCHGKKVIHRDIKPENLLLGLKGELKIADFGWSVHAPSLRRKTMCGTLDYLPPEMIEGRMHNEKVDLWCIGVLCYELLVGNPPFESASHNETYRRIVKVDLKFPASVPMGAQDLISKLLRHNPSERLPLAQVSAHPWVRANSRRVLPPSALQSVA

CCN(CCCOc1ccc2c(Nc3cc(CC(=O)Nc4cccc(F)c4)n[nH]3)ncnc2c1)CCOP(=O)(O)O [AZD1152]
inhibition of Aurora kinase B [1]: selective inhibitor

Nc1nc2ccc(Cl)cc2c2nc(-c3ccco3)nn12 [CGS-15953]
cytotoxicity for breast cancer cells expressing high levels of Fra-1 [2]: *In an in vitro drug screen with the LOPAC library, we identified those two ADORA2B inhibitors as being selectively cytotoxic for breast cancer cells expressing high levels of Fra-1.

COC[C@@H]([C@H](O)[C@H](O)C(=O)NCC[C@H](C)c1nc(/C=C/C[C@@H]2O[C@]3(C[C@@H](O)[C@@H]2C)O[C@H]([C@H](C[C@H](O)[C@H](C)[C@H](O)[C@H](C)/C=C(C)/C(C)=C/C=C/C(C)=C\C#N)OC)[C@H](OP(=O)(O)O)C3(C)C)co1)N(C)C [Calyculin A]
potency for PP2A ([3]; description of known inhibitor): high potency for PP2A, low potency for PP1
potency for PP1 [4]: high potency for PP2A, low potency for PP1

C[C@@]12C(=O)OC(=O)[C@]1(C)[C@H]1CC[C@@H]2O1 [Candharidin]
potency for PP2A ([3]; description of known inhibitor): selective inhibitor of PP2A

CC1(C(=O)O)C2CCC(O2)C1(C)C(=O)O (centres unmarked) [Cantharidic acid]
potency for PP2A [3]: inhibits PP2A and PP1 (for use in protein purification)
potency for PP1 [4]: inhibits PP2A and PP1 (for use in protein purification)

Cn1cc(NC(=O)c2cc(NC(=O)c3cc(NC=O)cn3C)cn2C)cc1C(=O)NCCC(=N)N [Distamycin]
inhibition of E2F1-DNA complex [5]: specifically inhibits E2F1-DNA complex

O=C(O)[C@@H]1[C@H](C(=O)O)[C@H]2CC[C@@H]1O2 [Endothall]
potency for PP2A ([3]; description of known inhibitor): intermediate potency for PP2A

C[C@@](O)(/C=C/[C@H]1CC=CC(=O)O1)[C@@H](C[C@@H](O)\C=C/C=C\C=C\CO)OP(=O)(O)O [Fostriecin sodium salt]
potency for PP2A ([3]; description of known inhibitor): potent inhibitors for PP2A and PP4
potency for PP4 [6]: potent inhibitors for PP2A and PP4

C=C1C(=O)N[C@H](C)C(=O)N[C@@H](CC(C)C)C(=O)N[C@@H](C(=O)O)[C@H](C)C(=O)N[C@@H](CCCNC(=N)N)C(=O)N[C@@H](/C=C/C(C)=C/[C@H](C)[C@H](Cc2ccccc2)OC)[C@H](C)C(=O)N[C@@H](C(=O)O)CCC(=O)N1C [Microcystin LR] (R[Adda][d(γGlu)][NMeDha][dA]L[dAsp(3S-Me)]-OH; lactam N-7)
potency for PP2A compared to PP1 [3]: more potent for PP2A when compared to PP1

C=C1[C@@H](O)[C@@H]2O[C@]3(CC[C@H](/C=C/[C@@H](C)[C@@H]4CC(C)=C[C@@]5(O[C@H](C[C@@](C)(O)C(=O)O)CC[C@H]5O)O4)O3)CC[C@H]2O[C@@H]1[C@@H](O)C[C@H](C)[C@H]1O[C@@]2(CCCCO2)CC[C@H]1C [Okadaic acid]
inhibition of PP2A ([3]; at 1 nM): completely inhibits PP2A at 1 nM (less potent for PP1)
potency for PP1 [4]: completely inhibits PP2A at 1 nM (less potent for PP1)

CCCn1c(=O)[nH]c2nc(-c3ccc(S(=O)(=O)N4CCN(Cc5ccccc5)CC4)cc3)[nH]c2c1=O [PSB601]
antagonism of adenosine A2b receptor [7]: specific antagonist

N=C(N)c1ccc(OCCCCCOc2ccc(C(=N)N)cc2)cc1 [Pentamidine]
inhibition of PRLs [8]: inhibits all PRLs

Toutomycin
potency for PP2A compared to PP1 ([3]; PP2A versus PP1): more potent for PP1, less for PP2A
